Measurements from US11684660B2, “Human PD1 peptide vaccines and uses thereof” (OHIO STATE INNOVATION FOUNDATION, priority 2017, dated 2023).
No end group written: not given here.

How the values were obtained:
[1] = test system: murine colon carcinoma CT26 tumor cells; assay: CT26 tumor challenge in Balb/c mice immunized with PD-1 constructs; assay type: in vivo
Protocol: Immunocompetent Balb/c mice of 6-8 weeks of age were purchased from Charles River Laboratories, Wilmington, Mass. and housed in The Ohio State University's University Laboratory Animal Resources (ULAR) facilitates. Isoflurane was used to anaesthetize the animals before cells injection and termination. Pre-immune sera samples were taken from the mice then they were immunized with 100 μg of peptide emulsified in Montanide ISA 720 (Seppic, Paris, France) and nor-MDP adjuvant (N-acetyl-glucosamine-3 yl-acetyl L-alanyl-D-isoglutamine). Mice received booster immunizations 3 and 6 weeks after the first. Several test sera samples were taken from the mice (FIG. 8).
10 days after the second boost, mice were inoculated with […] murine colon carcinoma CT26 tumor cells subcutaneous on the right flank. Tumor growth was monitored three times a week and sera samples were taken weekly and upon sacrifice of the animal. Control mice on day 0 were engrated with 1×10^5 CT26 tumor cells subcutaneous and received. The animals received 150 μg injections of anti-mouse antibodies directed against PD-1. Mice were monitored and scored for the formation of palpable tumors twice weekly and sacrificed if tumors became necrotic or exceeded the predetermined size of 2,000 mm3. Tumor diameters were measured twice a week. Tumor size was calculated according to the formula: V=[(length ×width2)/2]. Tumor volumes were measured in cubic millimeters with calipers and calculated with the following formula: A×B2×0.5, where A is the largest diameter, and B is the smallest diameter. All experiments were performed in accordance with the U.S. Public Health Service Policy on Humane Care and Use of Laboratory Animals and approved by the Ohio State University Institutional Animals Care and Use Committee and detailed in the accepted protocol
To assess performance of 4 different vaccine treatments on tumor growth, tumor size was measured periodically in mice, and the results were compared to those of positive and negative controls. There were 5 mice in each treatment group, each receiving the assigned MVF-peptide and then being inoculated with 1e5 CT26 (colon) tumor cells 10 days after the final boost of the treatment. Day 14 was considered the primary time point of interest, as the investigators believed waiting until day 19 allowed the tumors too much time to grow, resulting in similar sizes at that point of the experiment. Tumor size was measured in three ways: LWW (½*length*width*width) at all time points, LWH (½*length*width*height) at all time points, and terminal tumor weight at the end of the study. The mice treated with MVF-PD-a(45), group C, were sacrificed before day 19 due to the death of one mouse, so the comparisons can only be made between tumor size at day 14. Tumor size is in units of mm3 for LWW and LWH and grams for terminal tumor weight.
Due to small sample sizes in each group and inability to assume normality, the exact Wilcoxon rank-sum test was used to check for systematic differences between the distributions of tumor size at times 14 days and 19 days (FIGS. 12A-D and Tables 7-10). P-values given are for test comparing that column's control to the respective treatment, and are two-sided to account for the possibility of tumor size being systematically larger or smaller between treatment and control. As this is preliminary data, the p-values are not adjusted for multiple comparisons. Overall, there were few instances of significant differences between the distributions of a control and a treatment.
Immunocompetent Balb/c mice (5 mice/gp) of 6-8 weeks of age were immunized with 100 μg of peptide emulsified in Montanide ISA 720 (Seppic, Paris, France) and nor-MDP adjuvant (N-acetyl-glucosamine-3 yl-acetyl L-alanyl-D-isoglutamine). […]

[2] = test system: CD4+CD25+FoxP3+ Tregs; assay: Immune-profiling of T cells in spleen and tumor by flow cytometry; assay type: in vivo, Balb/c mice
Protocol: CD4 and CD8 cells were determined by flow cytometry (gated on CD45+CD3+ cells). Foxp3+CD25+CD4 T regulatory cells were determined by intracellular staining. All CD4 and CD8 T cells were gated on CD45+CD3+ cells. Tregs were gated on CD45+CD3+CD4+ cells. Group A=control peptide, Group B=32-50; Group C=45-64; Group D=73-90; Group E=92-110; Group F=α-mouse PD-1 (positive control).
The tumor and tumor draining lymph nodes were collected for subsequent FACS analysis to study the immune response in mice. Cells suspensions were prepared from tissues either by mechanistic dissociation or by enzymatic digestion. The stained cells were analyzed with a LSR II flow cytometer (BD Biosciences) equipped with 3 excitation lasers at wavelengths 405, 488 and 633 nm. CD8+ T cells and CD4+CD25+ T cells from tumor leucocytes were purified either on a MACS column or FACSAria.
Flow cytometric analysis was performed to evaluate the expression of surface markers (CD45, CD3, CD4, CD8 and CD25) and transcription factor FoxP3 in splenocytes and tumor infiltrating T cells. Briefly, spleens were removed from mice and pressed through cell strainers, followed by a short incubation with red blood cells lysis buffer to lyse the red blood cells. Cells were then collected, washed, and resuspended in staining buffer (1% BSA in PBS). Similarly, tumors were removed from mice and pressed through cell strainers, followed by one wash with 37% percoll. The tumor cells were then washed with PBS and resuspended in staining buffer. The splenocytes and tumor cells were incubated with mAbs to the cell-surface markers for 30 min at 4° C. After washing twice with staining buffer, cells were fixed and permeabilized using Cytofix/Cytoperm solution for 60 min at 4° C. Cells were stained for FoxP3 for 30 min at 4° C. 80,000-100,000 live cell events were acquired on a FACSCanto (BD) and analyzed using FlowJo software (Tree Star, Inc.). To differentiate infiltrating cells from tumor cells, the tumor cells were first gated on CD45+ cells. Then the CD3+CD4+ and CD3+CD8+ cells were analyzed. Tregs were represented by CD4+CD25+FoxP3+ cells. […] Group E had the lowest Treg.

KLLSLIKGVIVHRLEGVE-GPSL-GAISLAPKAQIKESLRAEL-CONH2 (KLLSLIKGVIVHRLEGVEGPSLGAISLAPKAQIKESLRAEL-NH2) [MVF-PD-1 (92-110)]
inhibition of tumor growth ([1]; Day 14, FIG. 15): significant inhibition of tumor growth
median terminal tumor weight ([1]; end of study, 5 mice/group): 1.1 grams
difference in tumor size distribution versus controls ([1]; exact Wilcoxon rank-sum test, two-sided, unadjusted): systematically smaller tumor sizes than the positive control
median tumor size LWH, Day 19 ([1]; median, 5 mice/group): 819 mm3
median tumor size LWW, Day 19 ([1]; median, 5 mice/group): 1080 mm3
median tumor size LWH, Day 14 ([1]; median, 5 mice/group, ½*length*width*height): 270 mm3
median tumor size LWW, Day 14 ([1]; median, 5 mice/group, ½*length*width*width): 384 mm3
Treg population in spleen compared to Group A (negative control) ([2]; splenocytes, FIG. 10A): increased Treg population
Tregs in tumor ([2]; tumor infiltrating cells, FIG. 10B): lowest Treg
